The record followed here is patent publication US7585859B2, “PDE4B inhibitors and uses therefor” (Plexxikon, Inc., priority 2004, dated 2009).

pIC50: −log10 of the molar value.

The pIC50 is the negative decadic logarithm of the IC50, by convention in mol/L.

What all share (type): biochemical
Assay [1] has as its target T1, full-length human PDE4D5 isozyme (Homo sapiens, UniProt Q08499).
T1 construct: The full-length human PDE4D5 isozyme; His6 (N); TEV cleavage site (N); made in house; host or cells: baculovirus infected insect cells (unpurified lysate)
Kind of assay: PDE4 IC50 determination by Scintillation Proximity Assay, PDE4D5. Conditions: Table 1B, Formula I compounds; read-out: IC50 PDE4D5. As for the experimental part:
(§1) IC50s were determined by Scintillation Proximity Assay (SPA). The principle of the assay is based on the fact that cAMP, the PDE4 substrate, binds weakly to Yittrium Silicate SPA beads, whereas AMP, the product of PDE4 hydrolysis binds strongly. Thus, the extent of PDE4 hydrolysis of a sample of [^3H]cAMP can be measured because only the
(§2) [^3H]AMP produced by PDE4 hydrolysis will bind to the SPA beads and produce a scintillation signal.
(§3) PDE4 enzymes used for IC50 assays were:
PDE4D5: The full-length human PDE4D5 isozyme with an N-terminal His6 tag (SEQ ID NO: 18) and TEV cleavage site expressed in baculovirus infected insect cells. The enzyme was not purified from the cell lysates, so enzyme concentrations were not determined. Enzyme was stored in 50% glycerol at −20°.
(§4) Compounds tested (see Tables 3B, 4B and 5A for compounds and results) were 3-fold serially diluted 11 times in DMSO from a starting concentration of 4 mM or 40 μM, depending on compound potency. 1 μl of each dilution was transferred into duplicate wells of a white polystyrene 384-well assay plate (Coming #3705). In addition to the compound dilutions, each assay plate contained control wells with 1 μl of DMSO (to define 0% enzyme inhibition) or 1 μl of 200 μM roflumilast (to define 100% enzyme inhibition). Using a Beckman FX robot, 10 μl of [^3H] cAMP (Amersham TRK559) at 2 mCi/ml in assay buffer (50 mM Tris, pH 7.5; 8.3 mM MgCl; 1.7 mM EGTA; 0.01% BSA) was transferred to each assay well. Next, 10 μl of PDE4 enzyme in assay buffer was added and the plates were shaken for 30 s. at 1000 rpm to start the cAMP hydrolysis reaction. The concentrations of enzyme used were: PDE4B, 80 ng/ml; PDE4D, 4 ng/ml; PDE4B2, 2.5 μl of 50% glycerol stock/ml; PDE4D5 0.083 μl of 50% glycerol stock/ml. Assay plates were covered and incubated for 30 min. at 30°. Reactions were stopped by robotic addition of 10 μl of 5 mg/ml SPA beads (Amersham RPNQ0013) in 18 mM ZnSO4. The assay plates were covered with clear plastic film, centrifuged for 1 min. at 1000 RPM to settle the SPA beads, and counted using a Wallac TriLux scintillation counter. IC50's were calculated from the raw assay data by non-linear regression curve fitting using the Assay Explorer software package from MDL.
Background: In a scintillation proximity assay essentially only radioactivity close to the scintillant gives light.

Assay [2] has as its target T2, full-length human PDE4B2 isozyme (Homo sapiens, UniProt Q07343).
T2 construct: The full-length human PDE4B2 isozyme; His6 (N); TEV cleavage site (N); made in house; host or cells: baculovirus infected insect cells (unpurified lysate)
Kind of assay: PDE4 IC50 determination by Scintillation Proximity Assay, PDE4B2. The following applies: Table 1B, Formula I compounds; read-out: IC50 PDE4B2. As to the method: as §1, §2, §3
PDE4B2: The full-length human PDE4B2 isozyme with an N-terminal His6 tag (SEQ ID NO: 18) and TEV cleavage site expressed in baculovirus infected insect cells. The enzyme was not purified from the cell lysates, so enzyme concentrations were not determined. Enzyme was stored in 50% glycerol at −20°.
as §4

Assay [3] concerns the target T3, PDE4B: The catalytic domain of human PDE4B from S152-S528 (Homo sapiens, UniProt Q07343).
T3 construct: His6 (N); thrombin cleavage site (N); made in house; host or cells: E. coli
Kind of assay: PDE4 IC50 determination by Scintillation Proximity Assay, PDE4B. The following applies: Table 1B, Formula I compounds; read-out: IC50 PDE4B. The method in brief:
(§5)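 Hydrolysis of [^3H]cAMP measured by SPA with yttrium silicate beads, which bind the [^3H]AMP product strongly and cAMP weakly. Enzyme at 80 ng/ml for PDE4B, 4 ng/ml for PDE4D; 30 min at 30°.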

The target in another assay is T4, PDE4D (Homo sapiens, UniProt Q08499).
T4 construct: PDE4D: The catalytic domain of human PDE4B from S3 16-V692; His6 (N); thrombin cleavage site (N); made in house; host or cells: E. coli
Kind of assay: PDE4 IC50 determination by Scintillation Proximity Assay, PDE4D. Conditions: Table 1B, Formula I compounds; read-out: IC50 PDE4D. The method in brief: as §5

T3 sequence (Q07343 with tags, fused parts or gaps): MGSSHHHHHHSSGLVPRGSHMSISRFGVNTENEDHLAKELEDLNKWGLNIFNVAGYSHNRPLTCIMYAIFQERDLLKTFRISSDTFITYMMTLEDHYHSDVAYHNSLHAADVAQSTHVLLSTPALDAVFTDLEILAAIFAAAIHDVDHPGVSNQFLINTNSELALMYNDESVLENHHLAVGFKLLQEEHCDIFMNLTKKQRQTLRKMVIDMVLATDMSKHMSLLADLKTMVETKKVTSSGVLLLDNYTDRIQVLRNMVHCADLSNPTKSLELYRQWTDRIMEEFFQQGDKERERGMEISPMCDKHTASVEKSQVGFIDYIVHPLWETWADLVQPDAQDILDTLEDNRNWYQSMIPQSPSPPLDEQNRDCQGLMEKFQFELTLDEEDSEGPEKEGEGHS
T1 sequence (Q08499 1-745 isoform Q08499-6): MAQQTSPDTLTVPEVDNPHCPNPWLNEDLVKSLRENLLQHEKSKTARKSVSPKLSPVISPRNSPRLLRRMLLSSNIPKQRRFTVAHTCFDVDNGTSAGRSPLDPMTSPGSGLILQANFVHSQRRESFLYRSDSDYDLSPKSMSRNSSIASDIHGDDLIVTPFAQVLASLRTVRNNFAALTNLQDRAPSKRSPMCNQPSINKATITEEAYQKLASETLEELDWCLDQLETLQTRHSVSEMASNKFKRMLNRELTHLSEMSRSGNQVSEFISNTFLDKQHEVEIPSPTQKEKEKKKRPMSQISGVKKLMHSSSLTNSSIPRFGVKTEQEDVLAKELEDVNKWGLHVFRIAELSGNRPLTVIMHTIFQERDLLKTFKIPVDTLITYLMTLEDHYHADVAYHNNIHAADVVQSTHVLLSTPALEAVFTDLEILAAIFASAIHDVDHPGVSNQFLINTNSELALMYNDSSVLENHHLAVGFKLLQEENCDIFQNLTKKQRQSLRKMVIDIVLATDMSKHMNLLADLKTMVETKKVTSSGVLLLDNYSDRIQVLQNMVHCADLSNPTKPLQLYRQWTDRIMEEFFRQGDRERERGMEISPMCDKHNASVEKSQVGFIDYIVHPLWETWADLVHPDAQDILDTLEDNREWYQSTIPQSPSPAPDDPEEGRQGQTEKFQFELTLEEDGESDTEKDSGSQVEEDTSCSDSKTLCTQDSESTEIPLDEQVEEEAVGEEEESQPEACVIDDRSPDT
T4 sequence (Q08499 380-756): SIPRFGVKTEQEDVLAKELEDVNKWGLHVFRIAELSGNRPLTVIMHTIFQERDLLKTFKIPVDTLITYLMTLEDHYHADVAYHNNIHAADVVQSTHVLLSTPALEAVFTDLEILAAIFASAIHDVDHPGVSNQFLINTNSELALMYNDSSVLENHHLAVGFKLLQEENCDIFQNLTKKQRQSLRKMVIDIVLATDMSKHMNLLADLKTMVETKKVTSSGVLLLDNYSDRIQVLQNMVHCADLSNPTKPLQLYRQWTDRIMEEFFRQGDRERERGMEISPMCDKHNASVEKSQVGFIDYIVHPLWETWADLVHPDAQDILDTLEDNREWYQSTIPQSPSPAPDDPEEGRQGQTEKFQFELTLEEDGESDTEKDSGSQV
T2 sequence (Q07343 1-564 isoform Q07343-2): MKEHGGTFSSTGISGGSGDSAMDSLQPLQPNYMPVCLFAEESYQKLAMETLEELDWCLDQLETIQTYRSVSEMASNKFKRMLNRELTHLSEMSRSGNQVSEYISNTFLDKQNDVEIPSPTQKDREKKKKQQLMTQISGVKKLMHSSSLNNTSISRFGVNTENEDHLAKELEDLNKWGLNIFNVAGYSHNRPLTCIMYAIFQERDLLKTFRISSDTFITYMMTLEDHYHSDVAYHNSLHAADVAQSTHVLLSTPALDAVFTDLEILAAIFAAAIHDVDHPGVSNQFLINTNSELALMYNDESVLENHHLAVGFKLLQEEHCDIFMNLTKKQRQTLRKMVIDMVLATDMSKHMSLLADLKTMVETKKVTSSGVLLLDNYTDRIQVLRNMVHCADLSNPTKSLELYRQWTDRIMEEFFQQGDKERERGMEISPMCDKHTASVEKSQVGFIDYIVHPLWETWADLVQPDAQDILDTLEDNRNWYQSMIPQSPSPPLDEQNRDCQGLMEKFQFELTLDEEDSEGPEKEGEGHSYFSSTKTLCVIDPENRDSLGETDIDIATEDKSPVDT

Consider `N#Cc1c(NCCN2CCCCC2)sc(C(=O)c2cc(-c3ccc(Cl)c(Cl)c3)no2)c1N` [Compound 1-83, 4-Amino-5-[3-(3,4-dichloro-phenyl)-isoxazole-5-carbonyl]-2-(2-piperidin-1-yl-ethylamino)-thiophene-3-carbonitrile], for which the pIC50 (in assay [1]; in assay [2]; in assay [3]; on PDE4D) was under 5.00 throughout.

Turning to `COc1ccc(Nc2sc(C(=O)c3ccc(C)cc3C)c(N)c2C#N)cc1` [Compound 1-85], the pIC50 (in assay [1]; in assay [2]; in assay [3]; on PDE4D) was over 5.00 in each case.

As to `Cc1ccc(C(=O)c2sc(NC(=O)c3ccccc3C)c(C#N)c2N)c(C)c1` [Compound 1-86, N-[4-Amino-3-cyano-5-(2,4-dimethyl-benzoyl)-thiophen-2-yl]-2-methyl-benzamide], the pIC50 was under 5.00 in assay [1], under 5.00 in assay [2], over 5.00 in assay [3] and over 5.00 on PDE4D.

For `Cc1ccc(C(=O)c2sc(NC3CCCC3)c(C#N)c2N)c(C)c1` [Compound 1-90, 4-Amino-2-cyclopentylamino-5-(2,4-dimethyl-benzoyl)-thiophene-3-carbonitrile], the pIC50 (in assay [1]; in assay [2]; in assay [3]; at PDE4D) was over 5.00 each time.

Regarding `CCc1ccccc1Nc1sc(C(=O)c2cc(OC)ccc2OC)c(N)c1C#N` [Compound 1-99, 4-Amino-5-(2,5-dimethoxy-benzoyl)-2-(2-ethyl-phenylamino)-thiophene-3-carbonitrile], the pIC50 (in assay [1]; in assay [2]; in assay [3]; at PDE4D) was over 5.00 in each case.

`Cc1c(C(=O)c2sc(Nc3cccc(C#N)c3)c(C#N)c2N)cnn1-c1ccccc1` [Compound 1-125, 4-Amino-2-(3-cyano-phenylamino)-5-(5-methyl-1-phenyl-1H-pyrazole-4-carbonyl)-thiophene-3-carbonitrile]: the negative logarithm of the IC50 (pIC50) (in assay [1]; in assay [2]; in assay [3]; at PDE4D) was over 5.00 in each case.

Take `COc1ccc(Nc2sc(C(=O)c3c(-c4ccccc4)noc3C)c(N)c2C#N)cc1` [Compound 1-129, 4-Amino-2-(4-methoxy-phenylamino)-5-(5-methyl-3-phenyl-isoxazole-4-carbonyl)-thiophene-3-carbonitrile]: the pIC50 (in assay [1]; in assay [2]; in assay [3]; at PDE4D) was over 5.00 each time.

Take `COC(=O)c1ccccc1Nc1sc(C(=O)c2c(-c3ccccc3)noc2C)c(N)c1C#N` [Compound 1-130, 2-[4-Amino-3-cyano-5-(5-methyl-3-phenyl-isoxazole-4-carbonyl)-thiophen-2-ylamino]-benzoic acid methyl ester]: the negative-log IC50 (pIC50) (in assay [1]; in assay [2]; in assay [3]; at PDE4D) was over 5.00 each time.

Regarding `CCOC(=O)c1cc(C(=O)c2sc(NC3CCCC3)c(C#N)c2N)on1` [Compound 1-139, 5-(3-Amino-4-cyano-5-cyclopentylamino-thiophene-2-carbonyl)-isoxazole-3-carboxylic acid ethyl ester], the negative logarithm of the IC50 (pIC50) (in assay [1]; in assay [2]; in assay [3]; on PDE4D) was over 5.00 in each case.

For `COc1ccc(C(=O)c2sc(Nc3cccc(C#N)c3)c(C#N)c2N)c(OC)c1` [Compound 1-155, 4-Amino-2-(3-cyano-phenylamino)-5-(2,4-dimethoxy-benzoyl)-thiophene-3-carbonitrile], the pIC50 (in assay [1]; in assay [2]; in assay [3]; at PDE4D) was over 5.00 each time.
